Test [1] has as its target T1, Micrococcus luteus B-P 26-derived undecaprenyl diphosphate synthase (wild-type enzyme) (Micrococcus luteus, UniProt O82827).
T1 construct: made in house; host or cells: E. coli; plasmid pET22b/MLU-UPS
Put plainly: Relative activity of wild-type undecaprenyl diphosphate synthase on initiating substrates. Type of test: biochemical. As to conditions: activity of the enzyme on farnesyl diphosphate as 100; 12.5 μM initiating substrate, pH 7.5, 1 hour, 37° C. How it is done:
(§1) Reaction was performed under conditions shown below using each of the initiating substrates prepared in Production Examples 1 to 11 or farnesyl diphosphate. The activity of each variant enzyme on each initiating substrate was indicated by index with the activity of the wild-type enzyme (Micrococcus luteus B-P 26-derived undecaprenyl diphosphate synthase) as 100.
(§2) After the reaction, liquid scintillation counting and TLC quantification were performed to measure the activity of each enzyme.
Next, reaction was performed under conditions shown below using Micrococcus luteus B-P 26-derived undecaprenyl diphosphate synthase as an enzyme and each of the initiating substrates 1 to 4, the compound represented by the formula (B), the compound represented by the formula (C), the compound represented by the formula (G), the compound represented by the formula (K), and farnesyl diphosphate (FPP). The results were indicated in Table 10 by the relative activity of the enzyme on the initiating substrates 1 to 4, the compound represented by the formula (B), the compound represented by the formula (C), the compound represented by the formula (G), and the compound represented by the formula (K) with the activity of the enzyme on farnesyl diphosphate as 100.
(§3) After the reaction, liquid scintillation counting and TLC quantification were performed to measure the activity of the enzyme on each initiating substrate.

In test [2] the target is T2, variant enzyme L91K of undecaprenyl diphosphate synthase (Micrococcus luteus, UniProt O82827, L91K).
T2 construct: made in house; host or cells: E. coli; site-directed mutagenesis of pET22b/MLU-UPS
Put plainly: Relative activity of variant enzyme L91K on initiating substrates. Type of test: biochemical, Micrococcus luteus B-P 26. To be noted: index, activity of wild-type enzyme on same initiating substrate as 100; 12.5 μM initiating substrate, 1 hour, 37° C. How it is done:
as §1, §2

The target in test [3] is T3, variant enzyme F95A of undecaprenyl diphosphate synthase (Micrococcus luteus, UniProt O82827, F95A).
T3 construct: made in house; host or cells: E. coli; site-directed mutagenesis of pET22b/MLU-UPS
Put plainly: Relative activity of variant enzyme F95A on initiating substrates. Type of test: biochemical, Micrococcus luteus B-P 26. As to conditions: index, activity of wild-type enzyme on same initiating substrate as 100; 12.5 μM initiating substrate, 1 hour, 37° C. How it is done:
as §1, §2

Test [4] concerns the target T4, variant enzyme F95W of undecaprenyl diphosphate synthase (Micrococcus luteus, UniProt O82827, F95W).
T4 construct: made in house; host or cells: E. coli; site-directed mutagenesis of pET22b/MLU-UPS
Put plainly: Relative activity of variant enzyme F95W on initiating substrates. Type of test: biochemical, Micrococcus luteus B-P 26. As to conditions: index, activity of wild-type enzyme on same initiating substrate as 100; 12.5 μM initiating substrate, 1 hour, 37° C. How it is done: as §1, §2

Test [5] has as its target T5, Sulfolobus acidocaldarius-derived geranylgeranyl diphosphate synthase (Sulfolobus acidocaldarius, UniProt P39464).
T5 construct: made in house; host or cells: E. coli BL21 (DE3)
Put plainly: Relative activity of geranylgeranyl diphosphate synthase on initiating substrates. As to conditions: activity of the enzyme on farnesyl diphosphate as 100; 12.5 μM initiating substrate, pH 5.8, 1 hour, 55° C. Type of test: biochemical. How it is done:
Likewise, reaction was performed under conditions shown below using Sulfolobus acidocaldarius-derived geranylgeranyl diphosphate synthase and each of the initiating substrates 1 to 4, the compound represented by the formula (B), the compound represented by the formula (C), the compound represented by the formula (G), the compound represented by the formula (K), the compound represented by the formula (F), the compound represented by the formula (I), the compound represented by the formula (Q), farnesyl diphosphate (FPP), and geranyl diphosphate (GPP). The results were indicated in Tables 12 and 13 by the relative activity of the enzyme on the initiating substrates 1 to 4, the compound represented by the formula (B), the compound represented by the formula (C), the compound represented by the formula (G), the compound represented by the formula (K), the compound represented by the formula (F), the compound represented by the formula (I), and the compound represented by the formula (QO) with the activity of the enzyme on farnesyl diphosphate or geranyl diphosphate as 100.
as §3

Test [6] addresses T6, variant enzyme N31A of undecaprenyl diphosphate synthase (Micrococcus luteus, UniProt O82827, N31A).
T6 construct: made in house; host or cells: E. coli; site-directed mutagenesis of pET22b/MLU-UPS
Put plainly: Relative activity of variant enzyme N31A on initiating substrates. Type of test: biochemical, Micrococcus luteus B-P 26. As to conditions: index, activity of wild-type enzyme on same initiating substrate as 100; 12.5 μM initiating substrate, 1 hour, 37° C. How it is done: as §1, §2

Test [7] addresses T7, variant enzyme N77A of undecaprenyl diphosphate synthase (Micrococcus luteus, UniProt O82827, N77A).
T7 construct: made in house; host or cells: E. coli; site-directed mutagenesis of pET22b/MLU-UPS
Put plainly: Relative activity of variant enzyme N77A on initiating substrates. Type of test: biochemical, Micrococcus luteus B-P 26. As to conditions: index, activity of wild-type enzyme on same initiating substrate as 100; 12.5 μM initiating substrate, 1 hour, 37° C. How it is done:
as §1, §2

The target in test [8] is T8, variant enzyme L91D of undecaprenyl diphosphate synthase (Micrococcus luteus, UniProt O82827, L91D).
T8 construct: made in house; host or cells: E. coli; site-directed mutagenesis of pET22b/MLU-UPS
Put plainly: Relative activity of variant enzyme L91D on initiating substrates. Type of test: biochemical, Micrococcus luteus B-P 26. As to conditions: index, activity of wild-type enzyme on same initiating substrate as 100; 12.5 μM initiating substrate, 1 hour, 37° C. How it is done:
as §1, §2

For test [9], the target named is T9, variant enzyme L91G of undecaprenyl diphosphate synthase (Micrococcus luteus, UniProt O82827, L91G).
T9 construct: made in house; host or cells: E. coli; site-directed mutagenesis of pET22b/MLU-UPS
Put plainly: Relative activity of variant enzyme L91G on initiating substrates. Type of test: biochemical, Micrococcus luteus B-P 26. To be noted: index, activity of wild-type enzyme on same initiating substrate as 100; 12.5 μM initiating substrate, 1 hour, 37° C. How it is done:
as §1, §2

Test [10] has as its target T10, variant enzyme L91N of undecaprenyl diphosphate synthase (Micrococcus luteus, UniProt O82827, L91N).
T10 construct: made in house; host or cells: E. coli; site-directed mutagenesis of pET22b/MLU-UPS
Put plainly: Relative activity of variant enzyme L91N on initiating substrates. Type of test: biochemical, Micrococcus luteus B-P 26. As to conditions: index, activity of wild-type enzyme on same initiating substrate as 100; 12.5 μM initiating substrate, 1 hour, 37° C. How it is done: as §1, §2

Test [11] has as its target T11, variant enzyme N31Q of undecaprenyl diphosphate synthase (Micrococcus luteus, UniProt O82827, N31Q).
T11 construct: made in house; host or cells: E. coli; site-directed mutagenesis of pET22b/MLU-UPS
Put plainly: Relative activity of variant enzyme N31Q on initiating substrates. Type of test: biochemical, Micrococcus luteus B-P 26. As to conditions: index, activity of wild-type enzyme on same initiating substrate as 100; 12.5 μM initiating substrate, 1 hour, 37° C. How it is done: as §1, §2

The target in test [12] is T12, variant enzyme N77Q of undecaprenyl diphosphate synthase (Micrococcus luteus, UniProt O82827, N77Q).
T12 construct: made in house; host or cells: E. coli; site-directed mutagenesis of pET22b/MLU-UPS
Put plainly: Relative activity of variant enzyme N77Q on initiating substrates. Type of test: biochemical, Micrococcus luteus B-P 26. To be noted: index, activity of wild-type enzyme on same initiating substrate as 100; 12.5 μM initiating substrate, 1 hour, 37° C. How it is done:
as §1, §2

T7 sequence (O82827 whole entry N77A): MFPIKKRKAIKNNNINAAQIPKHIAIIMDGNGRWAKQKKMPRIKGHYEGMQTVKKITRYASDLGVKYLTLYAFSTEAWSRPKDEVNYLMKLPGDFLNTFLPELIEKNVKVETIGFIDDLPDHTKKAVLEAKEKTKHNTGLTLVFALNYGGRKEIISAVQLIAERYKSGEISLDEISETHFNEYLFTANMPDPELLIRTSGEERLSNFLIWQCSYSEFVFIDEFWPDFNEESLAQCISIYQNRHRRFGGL
T2 sequence (O82827 whole entry L91K): as the sequence (O82827 whole entry N77A) above, with A77N, L91K counted along it
T3 sequence (O82827 whole entry F95A): as the sequence (O82827 whole entry N77A) above, with A77N, F95A counted along it
T4 sequence (O82827 whole entry F95W): as the sequence (O82827 whole entry N77A) above, with A77N, F95W counted along it
T1 sequence (O82827 whole entry): as the sequence (O82827 whole entry N77A) above, with A77N counted along it
T9 sequence (O82827 whole entry L91G): as the sequence (O82827 whole entry N77A) above, with A77N, L91G counted along it
T6 sequence (O82827 whole entry N31A): as the sequence (O82827 whole entry N77A) above, with N31A, A77N counted along it
T8 sequence (O82827 whole entry L91D): as the sequence (O82827 whole entry N77A) above, with A77N, L91D counted along it
T5 sequence (P39464 whole entry): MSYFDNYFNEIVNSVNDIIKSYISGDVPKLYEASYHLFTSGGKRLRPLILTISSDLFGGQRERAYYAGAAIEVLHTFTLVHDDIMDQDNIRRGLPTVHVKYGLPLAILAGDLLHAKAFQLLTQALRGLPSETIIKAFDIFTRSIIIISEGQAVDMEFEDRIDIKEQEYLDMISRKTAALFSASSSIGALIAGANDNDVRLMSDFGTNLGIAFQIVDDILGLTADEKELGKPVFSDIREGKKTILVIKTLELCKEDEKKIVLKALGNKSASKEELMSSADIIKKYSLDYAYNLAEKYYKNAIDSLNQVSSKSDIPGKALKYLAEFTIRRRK
T10 sequence (O82827 whole entry L91N): as the sequence (O82827 whole entry N77A) above, with A77N, L91N counted along it
T11 sequence (O82827 whole entry N31Q): as the sequence (O82827 whole entry N77A) above, with N31Q, A77N counted along it
T12 sequence (O82827 whole entry N77Q): as the sequence (O82827 whole entry N77A) above, with A77Q counted along it

As to “7-acetyl-7-aza-3-methyl-dodeca-(2E)-dienyl diphosphate [Compound of formula (K)]”, the results for the “Relative activity (%)” value in test [1] and in [5] were 40.6% and 38.6%, respectively. The results for the Relative activity in [2], in [3] and in test [4] were 112, 136 and 148, respectively.
With `CCCCC(OC)/C(C)=C/CC/C(C)=C/COP(=O)(O)OP(=O)(O)O` (stereo not drawn) [Compound of formula (B), 8-methoxy-3,7-dimethyl-dodeca-(2E,6E)-dienyl diphosphate], the “Relative activity (%)” value was determined as 68.4% in test [1] and 70.6% in [5]. In addition, the Relative activity stood at 116 in [6]; 319 in [7]; 231 in [8]; 149 in [9]; 156 in test [2]; 128 in test [3]. In test [4], this compound gave a Relative activity of 140.
With `CCCCC(O)/C(C)=C/CC/C(C)=C/COP(=O)(O)OP(=O)(O)O` (stereo not drawn) [Compound of formula (C), 8-hydroxy-3,7-dimethyl-dodeca-(2E,6E)-dienyl diphosphate], the “Relative activity (%)” value is 74.8% in [1] and 37.3% in test [5]. In addition, the Relative activity was found to be 111 in test [6]; 234 in [7]; 108 in [10]; 155 in test [8]; 146 in [9]; 130 in test [2].
`COCOC/C(C)=C/CC/C(C)=C/COP(=O)(O)OP(=O)(O)O` [Compound of formula (H), 8-methoxymethoxy-3,7-dimethyl-octa-(2E,6E)-dienyl diphosphate]: the results for the Relative activity in test [6], in test [7] and in test [11] were 152, 162 and 110, respectively.
Turning to `CCCSC/C(C)=C/CC/C(C)=C/COP(=O)(O)OP(=O)(O)O` [Compound of formula (M), 8-n-propylthio-3,7-dimethyl-octa-(2E,6E)-dienyl diphosphate], the Relative activity in [6] came to 149; in [7], 127; in test [10], 139; in test [8], 123; in test [11], 101; in test [2], 112.
Consider `C/C(=C\COP(=O)(O)OP(=O)(O)O)CC/C=C(\C)COCc1ccccc1` [Compound of formula (N), 8-benzyloxy-3,7-dimethyl-octa-(2E,6E)-dienyl diphosphate], for which the Relative activity amounted to 112 in [7], 133 in test [12], 132 in [3] and 147 in test [4].
Consider `C/C(=C\COP(=O)(O)OP(=O)(O)O)CC/C=C(\C)CO[Si](C)(C)C(C)(C)C` [Compound of formula (P), 8-[(tert-butyldimethylsilyl)oxy]-3,7-dimethyl-octa-(2E,6E)-dienyl diphosphate], for which the Relative activity in [8] was 112; in test [9] it was 104; in test [3], 104; in test [4] it was 130.
Consider `CCC(CC/C(C)=C/CC/C(C)=C/COP(=O)(O)OP(=O)(O)O)C(C)=O` [Compound of formula (S), 10-acetyl-3,7-dimethyl-dodeca-(2E,6E)-dienyl diphosphate], for which the Relative activity is on record as 116 in [6]; 227 in [8]; 130 in test [9]; 147 in test [2]; 163 in test [3]; 130 in [4].

These data come from US9371342B2, “Isoprene oligomer, polyisoprene, processes for producing these materials, rubber composition, and pneumatic tire” (priority 2010, dated 2016).
